“Also recorded” adds a separate entry of the source. Read-outs that look alike come from different tables or passages of the source. Positions of bridges follow the written chain, without caps; N, C: chain ends. Residues, ends and D or L forms follow the SMILES beside them. Chains are numbered I, II in the order given. *: point of attachment. Daunorubicin(13-NOCH2CO) = COc1cccc2c1C(=O)c1c(O)c3c(c(O)c1C2=O)C[C@@](O)(C(C)=NOCC(=O)*)C[C@@H]3O[C@H]1C[C@H](N)[C@H](O)[C@H](C)O1

In general, IC50 refers to the concentration that inhibits the measured activity by half.

A short description of series [1]: Rat liver lysosomal homogenate. The settings on record: 37 °C, up to 72 h.
The nature of series [2]: 10% FBS (fetal bovine serum) containing complete cell culture medium (DMEM CM). The settings on record: 37 °C, up to 72 h.
The next series has as its system HT-29 cells. As to the kind of experiment: Cellular uptake by flow cytometry. Format: cell-based, human. The settings on record: 10 μM, 6 h, 37 °C; for Cellular uptake by HT-29 cells: FBS containing medium, flow cytometry (Dau fluorescence); for Cellular uptake in HT-29 compared with HT-1080 cells: flow cytometry, comparison of the two cell lines. From the text: (§1) Daunomycin is fluorescent therefore the cellular uptake of Dau containing conjugates can be followed by flow cytometry (Figure 2). The new conjugates were taken up by HT-29 cells in a higher amount than by HT-1080 cells. […] The low cytostatic/cytotoxic effects of conjugate 5 can be explained by the results of cellular uptake study.
(§2) Figure 2 (A) HT1080 and (B) HT-29 cells. Uptake of conjugate 1 (light green); 2 (red); 3 (light blue); 4 (pink); 5 (green); K (yellow). Empty control with purple color.
(§3) Analogous to the description in [17], prior to the treatment, HT-1080 and HT-29 cells were incubated overnight in cell culture medium (see above) followed by seeding at a 250.000 cells/well density. Peptide–drug conjugates were dissolved in FBS containing cell culture medium and added to the cells at 10 μM final concentration. After 6 h incubation at 37 °C the supernatant was removed, cells were washed with PBS and trypsinised with 0.1% trypsin (Gibco® by Life Technologies) for 10 minutes. Trypsinization was terminated with FBS containing medium, then cells were washed and suspended in serum free medium. For live/dead detection we used Zombie Violet reagent (Biolegend, San Diego CA). Samples were detected and analyzed by using an Attitude® Acoustic Focusing Cytometer (ThermoFischer Scientific).

The test system of the next series is HT-1080 cells. As to the kind of experiment: Cellular uptake by flow cytometry. Type of series: cell-based, human. The settings on record: 10 μM, 6 h, 37 °C, FBS containing medium; flow cytometry (Dau fluorescence).
From the text: as §1, §2, §3
A general note: Flow cytometry measures light scatter and fluorescence of single cells or particles in a stream.

The nature of series [3]: Chemostability (Asn deamidation) of cyclic NGR peptide-daunomycin conjugates in complete cell culture medium. The settings on record: DMEM CM (10% FBS complete medium), 2% DMSO, 1 mg/mL, 37 °C, HPLC-MS, area under the curve. Format: physicochemical. Here is the method: The chemostability of cyclic NGR peptide–drug conjugates was studied under the treatment conditions used for the in vitro cytotoxicity experiments. Samples were taken at 0 min, 6 h and 72 h. The deamidation rate was evaluated by HPLC–MS. […] After 6 h, moderate rearrangement was observed which increased in time. However, 54–58% of the parent cyclic NGR conjugates were still intact after 72 h. […] Except deamidation no other decomposition could be observed during this study.
As described in [17] to check the chemical stability each of the drug conjugates were dissolved in DMSO (2% of the final volume), following the addition of 10% FBS (fetal bovine serum) containing complete cell culture medium (DMEM CM) up to the 1 mg/mL final concentration. Each conjugate was allowed to incubate at 37 °C. Samples were analyzed at experiment time of 0 h, 6 h and 72 h, respectively, and components were purified with Amicon Ultra Centrifugal Filters (cut off 10K Millipore). The membranes were washed with eluent A (HPLC), followed by 3 × 15 min centrifugation at 13000 rpm. The last step is the washing with eluent B (HPLC) 1 × 15 min, followed by lyophilization and concentration of the samples.

For series [4], the system named is CD13- HT-29 human colon adenocarcinoma cells. As to the kind of experiment: In vitro cytostatic/cytotoxic effect, PrestoBlue viability. Type of series: cell-based. From the text:
(§4) Similarly to our previous study the antitumor effects of conjugates were examined in vitro on CD13+ HT-1080 human fibrosarcoma and on CD13− HT-29 human colon adenocarcinoma cells. Both cell types are integrin receptor positive. The effect of the new drug conjugates was compared with the toxicity of free Dau and our lead compound Dau=Aoa-GFLGK(c[KNGRE]-GG)-NH2 (K). The bioconjugates enter cancer cells most likely by receptor-mediated endocytosis (at least at lower micromolar concentration) followed by the release of the active metabolite Dau=Aoa-Gly-OH by lysosomal degradation. In contrast, free Dau enters the cells in an unspecific manner which might explain the lower antitumor effect of conjugates in comparison with the free drug. In this experiment we measured the cytostatic effect (6 h treatment and further 66 h incubation after washing out the compounds) and the cytotoxic effect (72 h treatment). The results are summarized in (Table 3). […] It seems that the replacement of Lys by the hydrophilic amino acid Ser is not favorite. However, the incorporation of hydrophobic amino acids was well accepted. The conjugate with bulky side chain in this position (Leu) had higher IC50 values that might be explained by sterical hindrance. […] The Nle containing conjugate presented similar activity on HT-1080 and higher activity on HT-29 cells compared to the control conjugate. It is worth mentioning that Nle has a linear hydrocarbon side chain with the same length as Lys, the amino functional group missing. To further characterize the biological activity of the conjugates, their lysosomal degradation and cellular uptake were studied.
(§5) HT-1080 was maintained in DMEM while HT-29 cells in RPMI (Sigma-Aldrich), respectively, supplemented with 10% FBS, 5 mmol/L glutamine, and 50 units/mL penicillin and streptomycin (Life Technologies). As described in [17] cells were seeded in 5000 cells/well density in 100 μL medium followed by an overnight incubation. The next day 100 μL of serially diluted drugs were added to the cells. For the measurements of cytostatic effect, drug containing medium was gently removed from the plates after 6 h incubation, fresh medium was added to each wells, and the plates were further incubated for additional 66 h (72 h in total). In the case of cytotoxicity measurements, the drug containing medium was on the cells for the full period of the 72 h assay. At 72 h, supernatant was removed from the cells, and viability was assessed by the PrestoBlue® reagent (Life Technologies), which was diluted in PBS to reach the concentration given in the manufacturer’s instruction.

Series [5] has as its system CD13+ HT-1080 human fibrosarcoma cells. The description is as above. Format: cell-based.
From the text: as §4, §5

On to Dau=Aoa-GFLGK(c[CONH-ANGRE]-GG)-NH2, for which the cleaved bond result in series [1] was “Gly-Phe, major, 6 h”. Also, in series [2], the fragment found entry is “isoDGR, 6 h; also recorded: DGR, 72 h”.
For the compound Dau=Aoa-GFLGK(c[CONH-PNGRE]-GG)-NH2, the cleaved bond entry in series [1] was “Gly-Phe, major, 6 h”. Besides, the fragment found result in series [2] is “isoDGR, 6 h; also recorded: DGR, 6 h”.
For the compound `COc1cccc2c1C(=O)c1c(O)c3c(c(O)c1C2=O)C[C@@](O)(C(C)=NOCC(=O)NCC(=O)N[C@@H](Cc1ccccc1)C(=O)N[C@@H](CC(C)C)C(=O)NCC(=O)N[C@@H](CCCCNC(=O)CNC(=O)CNC(=O)[C@@H]1CCC(=O)N2CCC[C@H]2C(=O)N[C@@H](CC(N)=O)C(=O)NCC(=O)N[C@@H](CCCNC(=N)N)C(=O)N1)C(N)=O)C[C@@H]3O[C@H]1C[C@H](N)[C@H](O)[C@H](C)O1` [compound 4, Dau=Aoa-GFLGK(c[CONH-PNGRE]-GG)-NH2] (I: PNGREGG / II: {Daunorubicin(13-NOCH2CO)}-GFLGK-NH2; amide I:C-II:5; lactam I:N-I:5), in the series on HT-29 cells, the “Cellular uptake by HT-29 cells” value was “highest uptake” and the “Cellular uptake in HT-29 compared with HT-1080 cells” value is recorded as “significantly higher accumulation in HT-29 than in HT-1080 cells”. For the same compound, the “Cellular uptake by HT-1080 cells” value in the series on HT-1080 cells was “highest uptake”. In series [3] (6 h), the “Ratio of Asn-/Asp-/isoAsp-derivatives: DGR” value is 14% and the “Ratio of Asn-/Asp-/isoAsp-derivatives: isoDGR” value is 13%. The “Ratio of Asn-/Asp-/isoAsp-derivatives: NGR” value in series [3] (6 h, % printed in b14 only) was 73%. In addition, in series [3] (72 h), the “Ratio of Asn-/Asp-/isoAsp-derivatives: DGR” value turned out to be 46%, the “Ratio of Asn-/Asp-/isoAsp-derivatives: NGR” value is recorded as 19% and the “Ratio of Asn-/Asp-/isoAsp-derivatives: isoDGR” value worked out at 35%.
As for Dau=Aoa-GFLGK(c[CONH-NleNGRE]-GG)-NH2, in series [1], the cleaved bond entry is reported as “Gly-Phe, major, 6 h”. Moreover, the fragment found entry in series [2] is listed as “isoDGR, 6 h; also recorded: DGR, 6 h”.
Regarding Dau=Aoa-GFLGK(c[CONH-LNGRE]-GG)-NH2, the cleaved bond entry in series [1] was “Gly-Phe, major, 6 h”. Besides, the fragment found result in series [2] is given as “isoDGR, 6 h; also recorded: DGR, 72 h”.
As to Dau=Aoa-GFLGK(c[CONH-SNGRE]-GG)-NH2, in series [1], the cleaved bond result is “Gly-Phe, major, 6 h”. Also, in series [2], the fragment found entry is recorded as “DGR, 72 h; also recorded: isoDGR, 6 h”.
In the case of `COc1cccc2c1C(=O)c1c(O)c3c(c(O)c1C2=O)C[C@@](O)(C(C)=NOCC(=O)NCC(=O)N[C@@H](Cc1ccccc1)C(=O)N[C@@H](CC(C)C)C(=O)NCC(=O)N[C@@H](CCCCNC(=O)CNC(=O)CNC(=O)[C@@H]1CCC(=O)N[C@@H](CC(C)C)C(=O)N[C@@H](CC(N)=O)C(=O)NCC(=O)N[C@@H](CCCNC(=N)N)C(=O)N1)C(N)=O)C[C@@H]3O[C@H]1C[C@H](N)[C@H](O)[C@H](C)O1` [compound 2, Dau=Aoa-GFLGK(c[CONH-LNGRE]-GG)-NH2], the “Cellular uptake in HT-29 compared with HT-1080 cells” value in the series on HT-29 cells is “significantly higher accumulation in HT-29 than in HT-1080 cells”.
For `COc1cccc2c1C(=O)c1c(O)c3c(c(O)c1C2=O)C[C@@](O)(C(C)=O)C[C@@H]3O[C@H]1C[C@H](N)[C@H](O)[C@H](C)O1` [Daunomycin], the IC50 was found to be 100 ± 100 nM in series [4] (HT-29, 72 h, read-out: HT-29 (72 h) IC50); 300 ± 200 nM in series [4] (HT-29, read-out: HT-29 (6 h) IC50); 500 ± 200 nM in series [5] (HT-1080, 72 h, read-out: HT-1080 (72 h) IC50); 1400 ± 600 nM in series [5] (HT-1080, read-out: HT-1080 (6 h) IC50).
As for `COc1cccc2c1C(=O)c1c(O)c3c(c(O)c1C2=O)C[C@@](O)(C(C)=NOCC(=O)NCC(=O)N[C@@H](Cc1ccccc1)C(=O)N[C@@H](CC(C)C)C(=O)NCC(=O)N[C@@H](CCCCNC(=O)CNC(=O)CNC(=O)[C@@H]1CCC(=O)N[C@@H](CO)C(=O)N[C@@H](CC(N)=O)C(=O)NCC(=O)N[C@@H](CCCNC(=N)N)C(=O)N1)C(N)=O)C[C@@H]3O[C@H]1C[C@H](N)[C@H](O)[C@H](C)O1` [compound 5, Dau=Aoa-GFLGK(c[CONH-SNGRE]-GG)-NH2], in the series on HT-29 cells, the “Cellular uptake by HT-29 cells” value is on record as “slightly higher cellular uptake”. Also, in the series with HT-1080 cells, the “Cellular uptake by HT-1080 cells” value was “did not enter”.
The compound Dau=Aoa-GFLGK(c[CONH-KNGRE]-GG)-NH2 displayed a not cleaved in series [2] of 100% NGR form at 72 h.
